Laboratory results from PubChem BioAssay (NCI).
Where “and” joins values, the source holds several entries; their conditions need not be identical. Equal entries are not always repeated.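 A five-concentration, 48-hour dose response in 96-well plates underlies each endpoint, interpolated linearly between surrounding concentrations. GI50 marks 50% less growth. TGI: total growth inhibition.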

Legend:
Assay in all cases: NCI-60 cell line screen, 48 h
[1] = system: A549 NSCLC
[2] = system: BT-549 breast
[3] = system: HOP-62 NSCLC
[4] = system: HS 578T breast
[5] = system: NCI/ADR-RES ovarian
[6] = system: RXF 393 renal
[7] = system: SF-295 CNS
[8] = system: SF-539 CNS
[9] = system: SK-MEL-5 melanoma
[10] = system: U251 CNS

Structure (SMILES) | TGI [1] | TGI [2] | TGI [3] | TGI [4] | TGI [5] | TGI [6] | TGI [7] | TGI [8] | TGI [9] | TGI [10] | GI50 [1] | GI50 [2] | GI50 [3] | GI50 [4] | GI50 [5] | GI50 [6] | GI50 [7] | GI50 [8] | GI50 [9] | GI50 [10]
COc1cc2c(cc1O)NC(=O)[C@@H]1CCCN1C2=O | > 100 µM | > 100 µM | > 100 µM | > 100 µM | > 100 µM | > 100 µM | > 100 µM | > 100 µM | > 100 µM | > 100 µM |  |  |  |  |  |  |  |  |  | 
C=C1CC[C@H]2C(=O)OC(c3ccoc3)C[C@]2(C)C/C=C\C=C/1C(=O)OC (some centres undefined) | > 25 µM | > 25 µM | > 25 µM | > 25 µM | > 25 µM | > 25 µM | > 25 µM | > 25 µM | > 25 µM | > 25 µM |  |  |  |  |  |  |  |  |  | 
O=P1(Cc2ccccc2)N(Cc2ccccc2)[C@@H]2CCCC[C@H]2N1Cc1ccccc1 | 19.7 µM | 33.8 µM | 32.2 µM | 26.5 µM | 23 µM | 26.9 µM | 21.1 µM | 33.8 µM | 3.57 µM | 25.5 µM |  |  |  |  |  |  |  |  |  | 
c1ccc2c3[nH]c(c2c1)=Nc1ccc(cc1)-c1nc2ccc(cc2o1)N=c1[nH]c(c2ccccc12)=Nc1ccc2nc(oc2c1)-c1ccc(cc1)N=3 | > 100 µM | > 100 µM | > 100 µM | > 100 µM | > 100 µM | > 100 µM | > 100 µM | > 100 µM | 29.4 µM | 88.3 µM |  |  |  |  |  |  |  |  |  | 
Cn1nnnc1SC(F)(F)c1nc2ccccc2o1 | > 100 µM | > 100 µM | > 100 µM | > 100 µM | > 100 µM | > 100 µM | > 100 µM | > 100 µM | > 100 µM | > 100 µM |  |  |  |  |  |  |  |  |  | 
O=C(CBr)c1ccc2cc(Br)c3ccccc3c2c1 | 76.7 µM | 34 µM | > 100 µM | 59.6 µM | > 100 µM | 38.7 µM | 56.7 µM | 41.7 µM | 30.2 µM | > 100 µM |  |  |  |  |  |  |  |  |  | 
COCCn1cnc2c(Cl)nc(Nc3ccccc3)nc21 | > 100 µM | 99 µM | > 100 µM | 61.6 µM | > 100 µM | 47.4 µM | > 100 µM | > 100 µM | > 100 µM | > 100 µM |  |  |  |  |  |  |  |  |  | 
CC(=O)OC(CCC1(C)OC1COc1ccc(CCNC(=O)C=C(C)C)cc1)C(C)(C)OC(C)=O (centres undefined) | > 100 µM | 25.4 µM | > 100 µM | > 100 µM | 47.9 µM | > 31.6 µM | > 100 µM | > 100 µM | 15.6 µM | > 100 µM |  |  |  |  |  |  |  |  |  | 
O=C1C(Br)=CC2(C=C1Br)CCNC1=C2C(=O)c2ncccc2C1=O | 3.32 µM | 2.73 µM | 1.73 µM | 5.34 µM | 6.17 µM | 2.65 µM | 2.74 µM | 0.841 µM | 1.62 µM | 5.6 µM |  |  |  |  |  |  |  |  |  | 
O=C1CC(=O)NC(=NN2C(=O)/C(=C/c3ccc(Cl)c(Cl)c3)N=C2c2ccccc2)N1 | > 100 µM | 49.2 µM | 79.6 µM | 50.9 µM | 54.2 µM | 92.6 µM | > 100 µM | 39.6 µM | 30.3 µM | 90.4 µM |  |  |  |  |  |  |  |  |  | 
CC(=O)c1c(N=[N+]=[N-])c2cccc3c2n(c1=O)CCC3 | > 100 µM | 39.8 µM | 42.3 µM | 78.3 µM | 38.2 µM | 45.4 µM | 60 µM | > 100 µM | 28.5 µM | 31.6 µM |  |  |  |  |  |  |  |  |  | 
Cc1n[n+](Cc2ccccc2)c2sc(N)nn12 | > 100 µM | > 100 µM | > 100 µM | > 100 µM | > 100 µM | > 100 µM | > 100 µM | > 100 µM | > 100 µM | > 100 µM |  |  |  |  |  |  |  |  |  | 
CC(=O)NC1C(Sc2ncn(C3OC(CO)C(O)C(O)C3NC(C)=O)n2)OC(CO)C(O)C1O (centres undefined) | > 100 µM | > 100 µM | > 100 µM | > 100 µM | > 100 µM | > 100 µM | > 100 µM | > 100 µM | > 100 µM | > 100 µM |  |  |  |  |  |  |  |  |  | 
COc1ccc(CNc2nc(NC3CCCCC3)nc(NC3CCCCC3)n2)cc1 | > 100 µM | > 100 µM | > 100 µM | > 100 µM | > 100 µM | 7.94 µM | > 100 µM | > 100 µM | 14.4 µM | 84.7 µM |  |  |  |  |  |  |  |  |  | 
CN1CCc2c(sc3[nH]c(=S)[nH]c(=S)c23)C1 | > 100 µM | > 100 µM | > 100 µM | > 100 µM | > 100 µM | > 100 µM | > 100 µM | > 100 µM | > 100 µM | > 100 µM |  |  |  |  |  |  |  |  |  | 
O=Cc1ccc(-c2ccc(-c3ccc(CO)s3)o2)s1 | 98.8 µM | 67.9 µM | > 84.3 µM | 59.5 µM | 40.4 µM | 47.6 µM | > 87.9 µM | > 81.6 µM | 17.7 µM | > 42.1 µM |  |  |  |  |  |  |  |  |  | 
CCCCC1Cc2cc(O)ccc2-c2nc3cc(O)ccc3n21 (centres undefined) (tested in a mixture with another compound) | 38.6 µM | 41.6 µM | 30.2 µM | 35.1 µM | 49.4 µM | 35.6 µM | 33.4 µM | 28.5 µM | 26.3 µM | 27.5 µM |  |  |  |  |  |  |  |  |  | 
Cc1ccnc2c1C(=O)C1=C(OC(C)(C)CC1O)C2=O (centres undefined) | 21.6 µM | 12.7 µM | 13.6 µM | 15.2 µM | 8.93 µM | 23 µM | 8.79 µM | 10.4 µM | 2.6 µM | 13.2 µM |  |  |  |  |  |  |  |  |  | 
Oc1c(Br)ccc2cccnc12 | > 100 µM | > 92.2 µM | > 100 µM | 72.5 µM | 6.38 µM | 32.4 µM | 14.9 µM | > 50.6 µM | > 39.2 µM | > 100 µM |  |  |  |  |  |  |  |  |  | 
CC(=O)OCC1OC(n2c(C)c(N=Nc3ccc(Cl)cc3)c(C)c(C#N)c2=S)C(OC(C)=O)C(OC(C)=O)C1OC(C)=O (centres undefined) | > 100 µM | 52.3 µM | 51.7 µM | 68 µM | > 100 µM | 40.7 µM | 76.5 µM | > 100 µM | > 100 µM | 98 µM |  |  |  |  |  |  |  |  |  | 
N#Cc1cc2c(cc1Cl)Sc1nnc(Nc3ccccc3)n1S2(=O)=O | 16 µM | 8.12 µM | 3.36 µM | 6.63 µM | 3.43 µM | 4.48 µM | 9.2 µM | 4.41 µM | 6.84 µM | 3.6 µM |  |  |  |  |  |  |  |  |  | 
N/C(=N\S(=O)(=O)c1ccc(-c2ncccc2C(F)(F)F)s1)Nc1ccc(Cl)cc1 | 36.7 µM | 29 µM | 38.3 µM | 40.5 µM | 41.1 µM | 41.5 µM | 31.6 µM | > 100 µM | > 100 µM | 25.8 µM |  |  |  |  |  |  |  |  |  | 
CC(=O)SC(C[N+](=O)[O-])c1ccc2c(c1)OCO2 (centres undefined) | 24.1 µM | 14.2 µM | 36.5 µM | 45.3 µM | 35.5 µM | 3.41 µM | 26.1 µM | 5.14 µM | 19.9 µM | 13 µM |  |  |  |  |  |  |  |  |  | 
O=C1/C(=C\c2cccc(Oc3ccccc3)c2)S(=O)(=O)C(c2ccccc2)N1c1cccc(Cl)c1 (centres undefined) | > 100 µM | > 100 µM | > 100 µM | > 100 µM | > 100 µM | > 100 µM | > 100 µM | > 100 µM | > 100 µM | > 100 µM |  |  |  |  |  |  |  |  |  | 
O=C(N[C@@H](Cc1coc2ccccc12)B(O)O)[C@@H]1C[C@H]2CC[C@@H]1O2 | > 100 µM | 42.2 µM | 43.6 µM | 66.6 µM | > 100 µM | 5.94 µM | 17.6 µM | 6.12 µM | 35.3 µM | > 100 µM | 7.58 µM | 3.07 µM | 3.65 µM | 3.81 µM | 48 µM | 1860 nM | 3.93 µM | 1720 nM | 4.25 µM | 17.8 µM
CCC1CC(O)c2c(O)c3c(c(O)c2C1O)C(=O)c1cccc(O)c1C3=O (centres undefined) (tested in a mixture with another compound) |  | 0.0704 µM | 0.197 µM and 1.79 µM | 0.331 µM | 0.295 µM | 0.0326 µM and 0.0459 µM |  | 0.0957 µM and 0.0893 µM | 0.0374 µM and 0.0138 µM | 0.23 µM and 0.331 µM |  |  |  |  | 0.0101 µM |  |  |  |  | 
COC(=O)[C@@H](NC(=O)N(Cc1ccccc1)C[C@H](CC(C)C)NC(=O)[C@@H](NC(=O)OC(C)(C)C)C(C)C)C(C)C | > 100 µM | > 100 µM | > 100 µM | > 100 µM | > 100 µM | > 100 µM | > 100 µM | > 100 µM | > 100 µM | > 100 µM |  |  |  |  |  |  |  |  |  | 
CN1CC=C(c2c(N)nc(N)[nH]c2=O)CC1 | > 100 µM | > 100 µM | > 100 µM | > 100 µM | > 100 µM | > 100 µM | > 100 µM | > 100 µM | > 100 µM | > 100 µM |  |  |  |  |  |  |  |  |  | 
O=c1[nH]c2nc3ccccc3c(=O)n2/c1=C/c1cccs1 | > 100 µM | > 100 µM | > 100 µM | > 100 µM | > 100 µM | > 100 µM | > 100 µM | > 100 µM | > 100 µM | > 100 µM |  |  |  |  |  |  |  |  |  | 
CCOC(=O)C(Cc1ccc(O)cc1)Nc1nc(=O)c2c(=O)oc(Cl)cc2o1 (centres undefined) | 34.7 µM | 14.1 µM | 26.7 µM | 11.1 µM | > 69.7 µM | 16 µM | 29.8 µM | 21.9 µM | > 49 µM | 21.9 µM |  |  |  |  |  |  |  |  |  | 
